Source: PubChem BioAssay (NCI)
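Cultured in 96-well plates, cells were exposed to test compound for 48 hours across five concentrations. TGI marks complete inhibition of growth.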

How the values were obtained:
Assay in all cases: growth of human tumour cells (NCI), 48 h
OVCAR-5 ovarian = system: OVCAR-5 ovarian
COLO 205 colon = system: COLO 205 colon
HS 578T breast = system: HS 578T breast
TK-10 renal = system: TK-10 renal
SR leukemia = system: SR leukemia
SW-620 colon = system: SW-620 colon
CAKI-1 renal = system: CAKI-1 renal
A549 NSCLC = system: A549 NSCLC
MALME-3M melanoma = system: MALME-3M melanoma
CCRF-CEM leukemia = system: CCRF-CEM leukemia
MDA-MB-231 breast = system: MDA-MB-231 breast
PC-3 prostate = system: PC-3 prostate
SF-295 CNS = system: SF-295 CNS
SK-MEL-2 melanoma = system: SK-MEL-2 melanoma
SN12C renal = system: SN12C renal
BT-549 breast = system: BT-549 breast
HCT-116 colon = system: HCT-116 colon
OVCAR-4 ovarian = system: OVCAR-4 ovarian
UACC-257 melanoma = system: UACC-257 melanoma
MDA-N = system: MDA-N
M14 melanoma = system: M14 melanoma
HOP-62 NSCLC = system: HOP-62 NSCLC
MDA-MB-435 = system: MDA-MB-435
ACHN renal = system: ACHN renal
HCC-2998 colon = system: HCC-2998 colon
UACC-62 melanoma = system: UACC-62 melanoma
T-47D breast = system: T-47D breast
EKVX NSCLC = system: EKVX NSCLC
SNB-75 CNS = system: SNB-75 CNS
MOLT-4 leukemia = system: MOLT-4 leukemia
U251 CNS = system: U251 CNS
NCI-H23 lung = system: NCI-H23 lung
SNB-19 CNS = system: SNB-19 CNS
OVCAR-3 ovarian = system: OVCAR-3 ovarian
RPMI-8226 leukemia = system: RPMI-8226 leukemia
OVCAR-8 ovarian = system: OVCAR-8 ovarian
HT29 colon = system: HT29 colon
NCI-H226 lung = system: NCI-H226 lung
SF-268 CNS = system: SF-268 CNS
HOP-92 NSCLC = system: HOP-92 NSCLC
NCI-H522 lung = system: NCI-H522 lung
IGROV1 ovarian = system: IGROV1 ovarian
SK-OV-3 ovarian = system: SK-OV-3 ovarian
MCF7 breast = system: MCF7 breast
SK-MEL-5 melanoma = system: SK-MEL-5 melanoma
SF-539 CNS = system: SF-539 CNS
UO-31 renal = system: UO-31 renal
K-562 leukemia = system: K-562 leukemia
HCT-15 colon = system: HCT-15 colon
NCI-H460 lung = system: NCI-H460 lung
SK-MEL-28 melanoma = system: SK-MEL-28 melanoma
HL-60(TB) leukemia = system: HL-60(TB) leukemia
786-0 renal = system: 786-0 renal
KM12 colon = system: KM12 colon
LOX IMVI melanoma = system: LOX IMVI melanoma
DU-145 prostate = system: DU-145 prostate
NCI/ADR-RES ovarian = system: NCI/ADR-RES ovarian
RXF 393 renal = system: RXF 393 renal
A498 renal = system: A498 renal

O=C1CSC(c2ccc(Cl)cc2)N1c1ccc(Oc2ccc(Cl)cc2)c(Cl)c1 (stereo unspecified)
TGI (OVCAR-5 ovarian): 29.6 µM | TGI (COLO 205 colon): 34.3 µM | TGI (HS 578T breast): 27.5 µM | TGI (TK-10 renal): 33.2 µM | TGI (SR leukemia): 41 µM | TGI (SW-620 colon): 45 µM | TGI (CAKI-1 renal): 26 µM | TGI (A549 NSCLC): 34.5 µM | TGI (MALME-3M melanoma): 21.9 µM | TGI (CCRF-CEM leukemia): 30.6 µM | TGI (MDA-MB-231 breast): 30.7 µM | TGI (PC-3 prostate): 31.3 µM | TGI (SF-295 CNS): 30.8 µM | TGI (SK-MEL-2 melanoma): 33.9 µM | TGI (SN12C renal): 38.6 µM | TGI (BT-549 breast): 29 µM | TGI (HCT-116 colon): 29.8 µM | TGI (OVCAR-4 ovarian): 28.1 µM | TGI (UACC-257 melanoma): 33.2 µM | TGI (MDA-N): 30.4 µM | TGI (M14 melanoma): 33.3 µM | TGI (HOP-62 NSCLC): 41.9 µM | TGI (MDA-MB-435): 39 µM | TGI (ACHN renal): 31.2 µM | TGI (HCC-2998 colon): 33.4 µM | TGI (UACC-62 melanoma): 28.8 µM | TGI (T-47D breast): 24.9 µM | TGI (EKVX NSCLC): 27.2 µM | TGI (SNB-75 CNS): 24.7 µM | TGI (MOLT-4 leukemia): 45 µM | TGI (U251 CNS): 36.2 µM | TGI (NCI-H23 lung): 31.4 µM | TGI (SNB-19 CNS): 30.2 µM | TGI (OVCAR-3 ovarian): 29 µM | TGI (RPMI-8226 leukemia): 63.8 µM | TGI (OVCAR-8 ovarian): 35.4 µM | TGI (HT29 colon): 36.3 µM | TGI (NCI-H226 lung): 36.5 µM | TGI (SF-268 CNS): 24 µM | TGI (HOP-92 NSCLC): 30.3 µM | TGI (NCI-H522 lung): 23.3 µM | TGI (IGROV1 ovarian): 31.2 µM | TGI (SK-OV-3 ovarian): 31.9 µM | TGI (MCF7 breast): 44.1 µM | TGI (SK-MEL-5 melanoma): 32.4 µM | TGI (SF-539 CNS): 30.4 µM | TGI (UO-31 renal): 21 µM | TGI (K-562 leukemia): > 100 µM | TGI (HCT-15 colon): 29.5 µM | TGI (NCI-H460 lung): 35.5 µM | TGI (SK-MEL-28 melanoma): 35.4 µM | TGI (HL-60(TB) leukemia): 39 µM | TGI (786-0 renal): 30.5 µM | TGI (KM12 colon): 29.4 µM | TGI (LOX IMVI melanoma): 30.7 µM | TGI (DU-145 prostate): 27.2 µM | TGI (NCI/ADR-RES ovarian): 35.3 µM

O=[N+]([O-])c1cccc(-c2csc(NNC3=NC/C(=C/c4ccc5c(c4)OCO5)S3)n2)c1
TGI (OVCAR-5 ovarian): > 100 µM | TGI (COLO 205 colon): 98.7 µM | TGI (HS 578T breast): 69.7 µM | TGI (TK-10 renal): 81.6 µM | TGI (SW-620 colon): > 100 µM | TGI (CAKI-1 renal): > 100 µM | TGI (A549 NSCLC): > 100 µM | TGI (CCRF-CEM leukemia): > 100 µM | TGI (MDA-MB-231 breast): 93.9 µM | TGI (PC-3 prostate): 55.8 µM | TGI (SF-295 CNS): > 100 µM | TGI (SK-MEL-2 melanoma): 56.5 µM | TGI (SN12C renal): > 100 µM | TGI (BT-549 breast): > 100 µM | TGI (HCT-116 colon): > 100 µM | TGI (OVCAR-4 ovarian): > 100 µM | TGI (RXF 393 renal): 47.4 µM | TGI (UACC-257 melanoma): > 100 µM | TGI (MDA-N): > 100 µM | TGI (M14 melanoma): 96 µM | TGI (HOP-62 NSCLC): > 100 µM | TGI (MDA-MB-435): > 100 µM | TGI (ACHN renal): > 100 µM | TGI (HCC-2998 colon): > 100 µM | TGI (UACC-62 melanoma): 56.5 µM | TGI (A498 renal): 37 µM | TGI (T-47D breast): > 100 µM | TGI (EKVX NSCLC): 41 µM | TGI (SNB-75 CNS): 46.5 µM | TGI (MOLT-4 leukemia): > 100 µM | TGI (U251 CNS): > 100 µM | TGI (NCI-H23 lung): 48.9 µM | TGI (SNB-19 CNS): 64.8 µM | TGI (OVCAR-3 ovarian): > 100 µM | TGI (RPMI-8226 leukemia): 93.5 µM | TGI (OVCAR-8 ovarian): 47.2 µM | TGI (HT29 colon): 65.4 µM | TGI (NCI-H226 lung): 43.3 µM | TGI (SF-268 CNS): 69 µM | TGI (HOP-92 NSCLC): 43.7 µM | TGI (NCI-H522 lung): 42.9 µM | TGI (IGROV1 ovarian): 47.4 µM | TGI (SK-OV-3 ovarian): 79 µM | TGI (MCF7 breast): > 100 µM | TGI (SK-MEL-5 melanoma): 38.6 µM | TGI (SF-539 CNS): > 100 µM | TGI (UO-31 renal): 85.6 µM | TGI (K-562 leukemia): > 100 µM | TGI (HCT-15 colon): > 100 µM | TGI (NCI-H460 lung): > 100 µM | TGI (HL-60(TB) leukemia): > 100 µM | TGI (786-0 renal): > 100 µM | TGI (KM12 colon): 29.2 µM | TGI (LOX IMVI melanoma): > 100 µM | TGI (DU-145 prostate): > 100 µM | TGI (NCI/ADR-RES ovarian): 53 µM

CCOC(=O)C(SCCO)C(C(=O)OCC)n1cnc2c(=O)[nH]c(NC(C)=O)nc21 (stereo unspecified)
TGI (OVCAR-5 ovarian): > 100 µM | TGI (COLO 205 colon): > 100 µM | TGI (HS 578T breast): > 100 µM | TGI (TK-10 renal): > 100 µM | TGI (SR leukemia): > 100 µM | TGI (SW-620 colon): > 100 µM | TGI (CAKI-1 renal): > 100 µM | TGI (A549 NSCLC): > 100 µM | TGI (MALME-3M melanoma): > 100 µM | TGI (CCRF-CEM leukemia): > 100 µM | TGI (MDA-MB-231 breast): > 100 µM | TGI (PC-3 prostate): > 100 µM | TGI (SF-295 CNS): > 100 µM | TGI (SK-MEL-2 melanoma): > 100 µM | TGI (SN12C renal): > 100 µM | TGI (BT-549 breast): > 100 µM | TGI (HCT-116 colon): > 100 µM | TGI (OVCAR-4 ovarian): > 100 µM | TGI (UACC-257 melanoma): > 100 µM | TGI (MDA-N): > 100 µM | TGI (M14 melanoma): > 100 µM | TGI (HOP-62 NSCLC): > 100 µM | TGI (MDA-MB-435): > 100 µM | TGI (ACHN renal): > 100 µM | TGI (HCC-2998 colon): > 100 µM | TGI (UACC-62 melanoma): > 100 µM | TGI (A498 renal): > 100 µM | TGI (T-47D breast): > 100 µM | TGI (EKVX NSCLC): > 100 µM | TGI (SNB-75 CNS): > 100 µM | TGI (MOLT-4 leukemia): > 100 µM | TGI (U251 CNS): > 100 µM | TGI (NCI-H23 lung): > 100 µM | TGI (SNB-19 CNS): > 100 µM | TGI (OVCAR-3 ovarian): > 100 µM | TGI (RPMI-8226 leukemia): > 100 µM | TGI (OVCAR-8 ovarian): > 100 µM | TGI (HT29 colon): > 100 µM | TGI (NCI-H226 lung): > 100 µM | TGI (SF-268 CNS): > 100 µM | TGI (HOP-92 NSCLC): > 100 µM | TGI (NCI-H522 lung): > 100 µM | TGI (IGROV1 ovarian): > 100 µM | TGI (SK-OV-3 ovarian): > 100 µM | TGI (MCF7 breast): > 100 µM | TGI (SK-MEL-5 melanoma): > 100 µM | TGI (SF-539 CNS): > 100 µM | TGI (UO-31 renal): > 100 µM | TGI (K-562 leukemia): > 100 µM | TGI (HCT-15 colon): > 100 µM | TGI (NCI-H460 lung): > 100 µM | TGI (SK-MEL-28 melanoma): > 100 µM | TGI (HL-60(TB) leukemia): > 100 µM | TGI (786-0 renal): > 100 µM | TGI (KM12 colon): > 100 µM | TGI (LOX IMVI melanoma): > 100 µM | TGI (DU-145 prostate): > 100 µM | TGI (NCI/ADR-RES ovarian): > 100 µM
